Results on 34 compounds are retold here after patent US9856216B2, “Compounds as TNIK, IKKε and TBK1 inhibitors and pharmaceutical composition comprising same” (GREEN CROSS CORPORATION, priority 2015, dated 2018).

Each structure is given as a SMILES string. Where a name gives a salt, the structure may show the parent alone. Where only a bound is given, the exact number is not on record here.

The first test deals with T1, TNIK (Homo sapiens, UniProt Q9UKE5).
T1 construct: purchased Promega V4158
T1 sequence (Q9UKE5 1-367 limits assumed): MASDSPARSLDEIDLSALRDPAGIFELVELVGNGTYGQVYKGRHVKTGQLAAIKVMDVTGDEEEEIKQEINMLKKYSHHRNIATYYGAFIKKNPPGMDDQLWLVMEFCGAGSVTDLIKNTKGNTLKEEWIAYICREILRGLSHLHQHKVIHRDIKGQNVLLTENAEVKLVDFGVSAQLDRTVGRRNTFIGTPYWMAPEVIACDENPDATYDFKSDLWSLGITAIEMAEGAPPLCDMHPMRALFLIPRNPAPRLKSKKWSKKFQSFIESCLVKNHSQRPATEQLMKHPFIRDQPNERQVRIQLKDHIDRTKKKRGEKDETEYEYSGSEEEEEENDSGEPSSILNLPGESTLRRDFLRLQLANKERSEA
The test is described as follows: ADP-Glo Kinase Assay, inhibition activity on TNIK. In kind it is biochemical.
Details: not given
The method, then:
The inhibition activities on TNIK, IKKε and TBK1 were measured by a luminometer, TNIK/IKKε/TBK1 Kinase Enzyme System (Promega, Ca# V4158; Invitrogen, PR8031B, Promega, Ca# V3991) and ADP-Glo Kinase Assay using ADP-Glo™ Kinase Analysis Kit (Promega, Ca# V9101) and a kinase reaction buffer [40 mM Tris(pH 7.5), 20 mM MgCl2, 0.1 mg/mL BSA] in accordance with the manufacturer's protocol.
A general note: ADP-Glo first removes unused ATP, then detects ADP through luciferase.
For the compound `O=C(Nc1ccc(-c2ccccc2)c2c1C(=O)NC2)c1ccc([N+](=O)[O-])cc1` [Example 119, 4-Nitro-N-(3-oxo-7-phenylisoindolin-4-yl)benzamide], the “TNIK (μM)” value is “Insoluble”.

For `O=C(Nc1ccc(-c2ccncc2)c2c1C(=O)NC2)c1ccccc1` [Example 127, N-(3-oxo-7-(pyridin-4-yl)isoindolin-4-yl)benzamide], the “TNIK (μM)” value is on record as “Insoluble”.

The test is the same for the next values; noted with them: read-out: TNIK.
As to `O=C(Nc1ccc(-c2cccc(C(F)(F)F)c2)c2c1C(=O)NC2)c1ccccc1` [Example 115, N-(3-oxo-7-(3-(trifluoromethyl)phenyl)isoindolin-4-yl) benzamide], the IC50 is > 20000 nM.

As for `CC(=O)Nc1ccc(C(=O)Nc2ccc(-c3ccccc3)c3c2C(=O)NC3)cc1` [Example 116, 4-Acetamido-N-(3-oxo-7-phenylisoindolin-4-yl)benzamide], the IC50 stood at 130 nM.

Turning to `O=C(Nc1ccc(-c2ccccc2)c2c1C(=O)NC2)c1ccccc1` [Example 117, N-(3-oxo-7-phenylisoindolin-4-yl)benzamide], the IC50 came out at 2320 nM.

Turning to `COc1ccc(-c2ccc(NC(=O)c3ccccc3)c3c2CNC3=O)cc1` [Example 118, N-(7-(4-methoxyphenyl)-3-oxoisoindolin-4-yl)benzamide], the IC50 is > 20000 nM.

For `COc1ccc(-c2ccc(NC(=O)c3ccc(NC(C)=O)cc3)c3c2CNC3=O)cc1` [Example 120, 4-Acetamido-N-(7-(4-methoxyphenyl)-3-oxoisoindolin-4-yl) benzamide], the IC50 is > 20000 nM.

As for `COc1ccc(C(=O)Nc2ccc(-c3ccccc3)c3c2C(=O)NC3)cc1` [Example 121, 4-Methoxy-N-(3-oxo-7-phenylisoindolin-4-yl)benzamide], the IC50 was determined as 3400 nM.

Turning to `O=C(Nc1ccc(-c2ccccc2)c2c1C(=O)NC2)c1ccc(F)cc1` [Example 122, 4-Fluoro-N-(3-oxo-7-phenylisoindolin-4-yl)benzamide], the IC50 was determined as 2200 nM.

Take `COc1ccc(C(=O)Nc2ccc(-c3ccc(F)cc3)c3c2C(=O)NC3)cc1` [Example 123, N-(7-(4-fluorophenyl)-3-oxoisoindolin-4-yl)-4-methoxy benzamide]: the IC50 turned out to be 7000 nM.

Consider `CC(=O)Nc1ccc(C(=O)Nc2ccc(-c3ccc(F)cc3)c3c2C(=O)NC3)cc1` [Example 124, 4-Acetamido-N-(7-(4-fluorophenyl)-3-oxoisoindolin-4-yl) benzamide], for which the IC50 was 170 nM.

As for `O=C(Nc1ccc(-c2cccs2)c2c1C(=O)NC2)c1ccccc1` [Example 125, N-(3-oxo-7-(thiophen-2-yl)isoindolin-4-yl)benzamide], the IC50 amounted to 1400 nM.

On to `O=C(Nc1ccc(-c2ccco2)c2c1C(=O)NC2)c1ccccc1` [Example 126, N-(7-(furan-2-yl)-3-oxoisoindolin-4-yl)benzamide], for which the IC50 was 600 nM.

For the compound `O=C(Nc1ccc(-c2ccncc2)c2c1C(=O)NC2)c1ccccc1` [Example 128, N-(3-oxo-7-(pyridin-4-yl)isoindolin-4-yl)benzamide hydrochloride], the IC50 was > 20000 nM.

As to `COc1ccccc1C(=O)Nc1ccc(-c2ccccc2)c2c1C(=O)NC2` [Example 129, 2-Methoxy-N-(3-oxo-7-phenylisoindolin-4-yl)benzamide], the IC50 was > 20000 nM.

Take `O=C(Nc1ccc(-c2ccccc2)c2c1C(=O)NC2)c1cccc(F)c1` [Example 130, 3-fluoro-N-(3-oxo-7-phenylisoindolin-4-yl)benzamide]: the IC50 was > 20000 nM.

Turning to `CSc1ccc(C(=O)Nc2ccc(-c3ccccc3)c3c2C(=O)NC3)cc1` [Example 131, 4-(Methylthio)-N-(3-oxo-7-phenylisoindolin-4-yl)benzamide], the IC50 was 2300 nM.

On to `CCCOc1ccc(-c2ccc(NC(=O)c3ccccc3)c3c2CNC3=O)cc1` [Example 132, N-(3-oxo-7-(4-propoxyphenyl)isoindolin-4-yl)benzamide], for which the IC50 is > 20000 nM.

Turning to `CC(C)c1ccc(-c2ccc(NC(=O)c3ccccc3)c3c2CNC3=O)cc1` [Example 133, N-(7-(4-isopropylphenyl)-3-oxoisoindolin-4-yl)benzamide], the IC50 was > 20000 nM.

For `COc1cccc(-c2ccc(NC(=O)c3ccco3)c3c2CNC3=O)c1OC` [Example 134, N-(7-(2,3-dimethoxyphenyl)-3-oxoisoindolin-4-yl)furan-2-carboxamide], the IC50 was 54 nM.

Consider `COc1cccc(-c2ccc(NC(=O)c3ccc(F)cc3)c3c2CNC3=O)c1OC` [Example 135, N-(7-(2,3-dimethoxyphenyl)-3-oxoisoindolin-4-yl)-4-fluoro benzamide], for which the IC50 is 140 nM.

In the case of `COc1cccc(-c2ccc(NC(=O)c3cccs3)c3c2CNC3=O)c1OC` [Example 136, N-(7-(2,3-dimethoxyphenyl)-3-oxoisoindolin-4-yl)thiophene-2-carboxamide], the IC50 came to 68 nM.

For `Cc1cc(F)ccc1C(=O)Nc1ccc(-c2ccccc2)c2c1C(=O)NC2` [Example 137, 4-Fluoro-2-methyl-N-(3-oxo-7-phenylisoindolin-4-yl) benzamide], the IC50 is > 20000 nM.

`COc1ccccc1-c1ccc(NC(=O)c2ccc(NC(C)=O)cc2)c2c1CNC2=O` [Example 138, 4-Acetamido-N-(7-(2-methoxyphenyl)-3-oxoisoindolin-4-yl) benzamide]: the IC50 stood at 200 nM.

For `CN(C)c1ccc(C(=O)Nc2ccc(-c3ccccc3)c3c2C(=O)NC3)cc1` [Example 139, 4-(Dimethylamino)-N-(3-oxo-7-phenylisoindolin-4-yl) benzamide], the IC50 was 1800 nM.

For the compound `CC(=O)Nc1ccc(C(=O)Nc2ccc(-c3ccco3)c3c2C(=O)NC3)cc1` [Example 140, 4-Acetamido-N-(7-(furan-2-yl)-3-oxoisoindolin-4-yl) benzamide], the IC50 is 300 nM.

Consider `COc1ccccc1-c1ccc(NC(=O)c2ccc(F)cc2)c2c1CNC2=O` [Example 141, 4-Fluoro-N-(7-(2-methoxyphenyl)-3-oxoisoindolin-4-yl) benzamide], for which the IC50 was 1600 nM.

With `O=C(Nc1ccc(-c2ccccc2)c2c1C(=O)NC2)c1ccccc1F` [Example 142, 2-Fluoro-N-(3-oxo-7-phenylisoindolin-4-yl)benzamide], the IC50 amounted to 950 nM.

In the case of `O=C(Nc1ccc(-c2ccccc2)c2c1C(=O)NC2)c1ccc(Cl)cc1` [Example 143, 4-Chloro-N-(3-oxo-7-phenylisoindolin-4-yl)benzamide], the IC50 turned out to be 1100 nM.

Regarding `COc1ccccc1-c1ccc(NC(=O)c2ccccc2)c2c1CNC2=O` [Example 144, N-(7-(2-methoxyphenyl)-3-oxoisoindolin-4-yl)benzamide], the IC50 turned out to be 700 nM.

On to `COc1cccc(-c2ccc(NC(=O)c3ccccc3)c3c2CNC3=O)c1` [Example 145, N-(7-(3-methoxyphenyl)-3-oxoisoindolin-4-yl)benzamide], for which the IC50 was 1300 nM.

Consider `O=C(Nc1ccc(-c2ccsc2)c2c1C(=O)NC2)c1ccccc1` [Example 146, N-(3-oxo-7-(thiophen-3-yl)isoindolin-4-yl)benzamide], for which the IC50 was > 20000 nM.

Regarding `N#Cc1cccc(-c2ccc(NC(=O)c3ccccc3)c3c2CNC3=O)c1` [Example 147, N-(7-(3-cyanophenyl)-3-oxoisoindolin-4-yl)benzamide], the IC50 was > 20000 nM.

As to `CN(C)c1cccc(-c2ccc(NC(=O)c3ccccc3)c3c2CNC3=O)c1` [Example 148, N-(7-(3-(dimethylamino)phenyl)-3-oxoisoindolin-4-yl) benzamide], the IC50 worked out at 7400 nM.
